The source of these data is the SangsterLogP compilation.

A short description of data set [1]: method code SF-FL, from DOI: 10.1562/0031-8655(2004)79<242:pmolop>2.0.co;2, PMID: 15115296. The note with it: pH 7.4.
Data set [2] in a line: method code SF-AS, from DOI: 10.1021/acs.jmedchem.5b00731, PMID: 26397825. The note with it: pH 7.4.
Data set [3] can be described thus: method code SF-AS, from DOI: 10.1562/0031-8655(2003)0780411sacotn2.0.co2, PMID: 14626671. Particulars: pH 6.8.
Assay in data set [4]: not given
The source holds these as a separate data set.

Assay in data set [5]: not given
This is another data set of the same source.

Assay in data set [6]: not given
This is another data set of the same source.

Data set [7] in a line: method code SF-AS, from DOI: 10.1562/0031-8655(2002)076<0127:dlbcop>2.0.co;2, PMID: 12194207. Particulars: pH 7.3.
Assay in data set [8]: not given
This is another data set of the same source.

A short description of data set [9]: method code SF-AS, from DOI: 10.1016/0223-5234(92)90105-a.
The nature of data set [10]: method code SF-AS, from DOI: 10.1021/jm020389w, PMID: 12620073. Particulars: pH 7.4.
Assay in data set [11]: not given
The source holds these as a separate data set.

A short description of data set [12]: method code SF-HPLC, from DOI: 10.1002/ps.2780220406.
Data set [13] in a line: method code SF-TN, from DOI: 10.1007/bf00632830.
Assay in data set [14]: not given
The source holds these as a separate data set.

Data set [15] in a line: method code SF-HPLC, from DOI: 10.1021/jm00056a006, PMID: 8474102. Particulars: pH 7.4.
The nature of data set [16]: method code SF-RC, from DOI: 10.1023/a:1015913817221, PMID: 2798313. The note with it: pH 7.4.
The nature of data set [17]: method code SF-HPLC, from DOI: 10.1016/0378-5173(93)90356-k. Particulars: pH 7.4.
A short description of data set [18]: method code SF-AS, from Suikov, S.Yu.; Bondarenko, A.V.; Bogza, S.L.; Lutsyk, A.I. (2003). Distribution of 5-aminopyrazoles and 5-aminoisoxazoles in the octanol-water system. Ukr. Khim. Zh. (Russ. Ed.), 69(5/6)31-34.
Data set [19] can be described thus: method code SF-RC, from DOI: 10.1016/j.nucmedbio.2016.05.003, PMID: 27236283. Particulars: pH 7.4.
Data set [20] in a line: method code SF-AS, from DOI: 10.1016/j.dyepig.2012.09.011. Particulars: pH 7.4.
Assay in data set [21]: not given
This is another data set of the same source.

Assay in data set [22]: not given
This is another data set of the same source.

Data set [23] can be described thus: method code SF-CR+AS, from DOI: 10.1021/bi00514a045, PMID: 7248282. Particulars: pH 7.0.
A short description of data set [24]: method code SF-AS, from DOI: 10.1021/jm0104926, PMID: 11960499.
Assay in data set [25]: not given
This is another data set of the same source.

Data set [26] in a line: method code SF-AS, from DOI: 10.1002/jps.2600600712, PMID: 4398902.
Data set [27] is described as follows: method code SF, from DOI: 10.1016/s0960-894x(00)80094-3. Particulars: pH 7.4.
A short description of data set [28]: method code SF, from DOI: 10.1021/bi00507a030, PMID: 7213619. The note with it: pH 1.0.
A short description of data set [29]: method code SF-AS, from DOI: 10.1016/s0021-9673(01)89384-5.
Data set [30] can be described thus: method code SF-HPLC, from DOI: 10.1016/j.bmc.2009.01.040, PMID: 19208447. The note with it: pH 7.0.
Data set [31] is described as follows: method code SF-HPLC, from DOI: 10.1016/j.ejps.2013.10.002, PMID: 24161609.
Data set [32] can be described thus: method code SF-AS, from Lee, B.; Shin, J.; Lim, M.; Jang, T.; Park, J.; Kim, K.; Kang, W. (1997). Partition Property of 5-Nitrothiopyrimidine Nucleoside. Bull Korean Chem Soc, 18(7)734-736. The note with it: pH 7.0.
The nature of data set [33]: method code SF-TN, from Korenman, I M.; Lunicheva, V.; Pomerantseva, G.; Khairulina, D. (1974). Distribution of methacrylic acid between organic solvents and water. Zh. Prikl. Khim., 47(10)2432-2434.

As to `CC(=O)OC1C(=O)C2(C)C(O)CC3OCC3(OC(C)=O)C2C(OC(=O)c2ccccc2)C2(O)CC(OC(=O)C(O)CNC(=O)c3ccccc3)C(C)=C1C2(C)C` (stereo unspecified), the logP was 1.92.

For `O=S(=O)(O)c1ccc(-c2c3nc(c(-c4ccc(S(=O)(=O)O)cc4)c4ccc([nH]4)c(-c4ccccc4)c4nc(c(-c5ccccc5)c5ccc2[nH]5)C=C4)CC3)cc1`, in data set [1], the logD is 1.79.

`CCN(CC)c1ccc(C=C2CC(=Cc3ccc(N(COCCOCCOCCOC)COCCOCCOCCOC)cc3)C2=O)cc1` yielded a logD in data set [2] of 3.2.

Consider `COC1=C2CC(C)=c3c(C(C)=O)c(OC)c(O)c4c3c2c2c(cc(OC)c3c(OC)cc(O)c4c32)C(=O)C1=O`, for which the logD in data set [3] stood at 1.67.

Consider `COc1c(O)c2c(=O)cc(OC)c3c4c(OC)cc(=O)c5c(O)c(NCCN(C)C)c6c(c(c1C(C(C)=O)=C(C)C6)c23)c54`, for which, in data set [3], the logD came out at 0.5.

In data set [2], `COCCOCCOCCOCN(C)c1ccc(C=C2CC(=Cc3ccc(N(C)COCCOCCOCCOC)cc3)C2=O)cc1` displayed a logD of 2.86.

`CC(C(=O)C1c2cccc(O)c2C(=O)c2c(O)cccc21)c1ccc(Cc2ccccc2)cc1` (stereo unspecified): the logP in [4] was found to be 4.46.

`ClCC(Cl)Cl` displayed a logP in [5] of 1.98.

For `O=C(O)CNCP(=O)(O)O`, in data set [6], the log partition coefficient (logP) was -3.3.

Consider `c1ccc2c(c1)-c1cc3[nH]c(cc4nc(cc5[nH]c(cc-2n1)c1ccccc51)-c1ccccc1-4)c1ccccc31`, for which the logD in data set [7] was determined as 3.35.

In the case of `COP(=O)(OC)OC(Br)C(Cl)(Cl)Br` (stereo unspecified), in [8], the lipophilicity (logP) was determined as 2.19.

`CCOC(=O)Nc1ccc2nn(C)nc2c1`: the logP in data set [9] was 1.83.

In the case of `CCOC(=O)Nc1ccc2cc3ccc(N)c(CO)c3nc2c1`, in data set [10], the logD stood at 1.55.

In the case of `Oc1cccc(-c2c3nc(c(-c4cccc(O)c4)c4ccc([nH]4)c(-c4cccc(O)c4)c4nc(c(-c5cccc(O)c5)c5ccc2[nH]5)C=C4)C=C3)c1`, the logD in data set [1] worked out at 4.93.

Consider `FC(F)(F)Cl`, for which the logP in data set [11] came to 1.56.

Consider `Clc1ccc(Cn2cncn2)cc1Cl`, for which the logP in [12] was found to be 2.54.

In data set [4], `COc1ccc2c(c1)c(CC(=O)C1c3cccc(O)c3C(=O)c3c(O)cccc31)c(C)n2C(=O)c1ccc(Cl)cc1` displayed a logP of 5.17.

In the case of `CN(C)C`, the logP in [13] stood at 0.27.

Molecule `CCCCOC(=O)CC(Cc1cncn1C)C(CC)C(=O)OCc1ccc(COC(=O)C(CC)C(CC(=O)OCCCC)Cc2cncn2C)cc1` (stereo unspecified) gave a logP in [14] of 6.87.

In [15], `CC(C)CC(O)C(O)C(CC1CCCCC1)NC(=O)C(Cc1nccs1)NC(=O)C(Cc1ccccc1)CS(=O)(=O)C1CN(C)C1` (stereo unspecified) returned a logD of 3.89.

On to `NC(N)=S`, for which the logD in [16] is -0.92.

On to `O=c1[nH]cc(F)c(=O)[nH]1`, for which the log distribution coefficient (logD) in data set [17] is -0.7.

On to `CCCOC(=O)CC(Cc1cncn1C)C(CC)C(=O)OCc1ccc(COC(=O)C(CC)C(CC(=O)OCCC)Cc2cncn2C)cc1` (stereo unspecified), for which the logP in data set [14] was 5.47.

Molecule `COc1ccc(-c2cc(N)n[nH]2)cc1` came in with a logP in [18] of 1.42.

In data set [19], `COc1cc(OCCF)cc(OC)c1NC(=O)c1ccc(Cc2cc3c(cc2C)CCCC3(C)C)o1` came in with a pH-dependent lipophilicity (logD) of 1.85.

`Nc1cccc(-c2c3nc(c(-c4cccc(N)c4)c4ccc([nH]4)c(-c4cccc(N)c4)c4nc(c(-c5cccc(N)c5)c5ccc2[nH]5)C=C4)C=C3)c1` had a logD in data set [20] of 3.75.

On to `Cn1cc[nH]c1=S`, for which the logP in data set [21] is -0.22.

`C1=Cc2nc1c(-c1cccs1)c1ccc([nH]1)c(-c1cccs1)c1nc(c(-c3cccs3)c3ccc([nH]3)c2-c2cccs2)C=C1` registered a logD in [20] of 2.74.

In [22], `COP(=O)(OC)OC=C(Cl)Cl` returned a logP of 1.4.

Regarding `N#CSO`, the logD in [23] was 0.32.

Turning to `[N-]=[N+]=CC(F)(F)F`, in data set [24], the logP is 1.6.

In [25], `CCC[N+](=O)[O-]` returned a logP of 0.86.

`S=C1CCCO1` had a logP in [26] of 0.6.

In data set [19], `COc1cc(NCCCF)cc(OC)c1NC(=O)c1ccc(Cc2cc3c(cc2C)CCCC3(C)C)o1` came in with a logD of 1.43.

For `NC1CCN(O)C1=O` (stereo unspecified), the logD in data set [27] was -3.52.

Molecule `CCC(N)=O` returned a logD in data set [28] of -0.66.

For `Oc1cccc(-c2c3nc(c(-c4cccc(O)c4)c4ccc([nH]4)c(-c4cccc(O)c4)c4nc(c(-c5cccc(O)c5)c5ccc2[nH]5)CC4)C=C3)c1`, the logD in data set [7] came out at 5.42.

Regarding `Cc1nccnn1`, the logP in data set [29] was -0.55.

`CC(=O)O[C@H]1C(=O)[C@@]2(C)[C@H]([C@H](OC(=O)c3ccccc3)[C@]3(O)C[C@H](OC(=O)[C@@H](C)O)C(C)=C1C3(C)C)[C@]1(OC(C)=O)CO[C@@H]1C[C@@H]2O` gave a logP of 1.52.

With `Nc1c(-c2ccccc2)c(-c2ccccc2)nn1-c1ccccc1`, the logP in data set [18] was 4.04.

Consider `O=C(c1ccccc1)c1cccc(C(O)C(=O)OCC2OC(OC3OC(CO)C(O)C(O)C3O)C(O)C(O)C2O)c1` (stereo unspecified), for which the logD in data set [30] was -0.25.

Regarding `O=C(O)[C@H](O)[C@@H](O)C(=O)O`, the logP in data set [31] was -1.2.

Turning to `CC(C(=O)OCC(O)C(OC1OC(CO)C(O)C(O)C1O)C(O)C(O)C=O)c1cccc(C(=O)c2ccccc2)c1` (stereo unspecified), the logD in [30] was -0.13.

On to `S=c1cc[nH]c(=S)[nH]1`, for which, in data set [32], the logD was -0.86.

In [15], `CC(C)CC(O)C(O)C(CC1CCCCC1)NC(=O)C(Cc1cscn1)NC(=O)C(Cc1ccccc1)CS(=O)(=O)C1CCN(C)C1` (stereo unspecified) had a logD of 3.61.

In turn, `C=C(C)C(=O)O` displayed a logP in data set [33] of 0.93.

What is called logP is a log measure of how a compound divides between an organic and an aqueous phase. High values mean higher lipophilicity, low ones lower lipophilicity. The term logD denotes the decadic logarithm of the distribution of all forms, ionised or not, between an organic phase and buffer at a given pH. Lower therefore signals lower lipophilicity.
